According to ChEMBL document CHEMBL1143158, “Tritium radiolabelling of PB28, a potent sigma-2 receptor ligand: pharmacokinetic and pharmacodynamic characterization” (Bioorg Med Chem Lett, 2008):

Legend:
[1] = Binding affinity to sigma 2 receptor in rat liver membrane by saturation analysis; type: cell membranes
[2] = Displacement of [3H]PB28 from sigma 2 receptor in rat liver membrane; type: cell membranes
[3] = Displacement of [3H]DTG from sigma 2 receptor in rat liver membrane; type: cell membranes
[4] = species: Rattus norvegicus; assay: Selectivity for rat sigma 2 receptor over rat sigma1 receptor; conditions: tested as the 3H-labelled form
[5] = molecular target: Sigma non-opioid intracellular receptor 1 (Rattus norvegicus, UniProt Q9R0C9); assay: Binding affinity to sigma 1 receptor in rat liver membrane; type: cell membranes
Sigma non-opioid intracellular receptor 1, sequence (Q9R0C9 whole entry): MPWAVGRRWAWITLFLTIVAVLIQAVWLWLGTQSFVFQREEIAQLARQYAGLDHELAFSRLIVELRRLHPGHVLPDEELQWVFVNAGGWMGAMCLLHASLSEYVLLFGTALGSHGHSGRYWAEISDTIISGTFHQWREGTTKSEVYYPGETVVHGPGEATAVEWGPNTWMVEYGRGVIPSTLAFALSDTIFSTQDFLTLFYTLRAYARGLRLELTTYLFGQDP

| Compound | Kd [1] [nM] | Ki [2] [nM] | Ki [3] [nM] | Selectivity ratio [4] | Ki [5] [nM] |
| --- | --- | --- | --- | --- | --- |
| [3H]C([3H])([3H])Oc1ccc(C)cc1C(=O)NCCCCN1CCc2cc(OC)c(OC)cc2C1 | 0.66 |  |  |  |  |
| O=C(CCCN1CCC(O)(c2ccc(Cl)cc2)CC1)c1ccc(F)cc1 [HALOPERIDOL] |  | 5.85 | 7.38 |  |  |
| Cc1ccccc1NC(=N)Nc1ccccc1C [DITOLYLGUANIDINE] |  | 42 |  |  |  |

Continued, values first:

| Kd [1] [nM] | Ki [2] [nM] | Ki [3] [nM] | Selectivity ratio [4] | Ki [5] [nM] | Compound |
| --- | --- | --- | --- | --- | --- |
|  | 0.57 | 0.34 | 40 |  | COc1cccc2c1CCCC2CCCN1CCN(C2CCCCC2)CC1 (centres undefined) |
| 0.12 |  |  |  | 13.6 | [3H]C1CCCCC1([3H])N1CCN(CCCC2CCCc3c(OC)cccc32)CC1 (centres undefined) |
